ChEMBL document CHEMBL2176882 (Bioorg Med Chem Lett, 2012)
Blank lines part the entries; values can stand above or below the molecule they belong to. Activity calls are given as the source filed them. The rule behind the calls is not given here.

Tests used:
[1] = target: Bromodomain-containing protein 4 (Homo sapiens, UniProt O60885); assay: Binding affinity to BRD4 assessed as inhibition of Alexa Fluor 488 binding after 60 mins by fluorescence anisotropic analysis
[2] = target: Bromodomain-containing protein 3 (Homo sapiens, UniProt Q15059); assay: Binding affinity to BRD3 assessed as inhibition of Alexa Fluor 488 binding after 60 mins by fluorescence anisotropic analysis
Sequence of Bromodomain-containing protein 3 (Q15059 whole entry): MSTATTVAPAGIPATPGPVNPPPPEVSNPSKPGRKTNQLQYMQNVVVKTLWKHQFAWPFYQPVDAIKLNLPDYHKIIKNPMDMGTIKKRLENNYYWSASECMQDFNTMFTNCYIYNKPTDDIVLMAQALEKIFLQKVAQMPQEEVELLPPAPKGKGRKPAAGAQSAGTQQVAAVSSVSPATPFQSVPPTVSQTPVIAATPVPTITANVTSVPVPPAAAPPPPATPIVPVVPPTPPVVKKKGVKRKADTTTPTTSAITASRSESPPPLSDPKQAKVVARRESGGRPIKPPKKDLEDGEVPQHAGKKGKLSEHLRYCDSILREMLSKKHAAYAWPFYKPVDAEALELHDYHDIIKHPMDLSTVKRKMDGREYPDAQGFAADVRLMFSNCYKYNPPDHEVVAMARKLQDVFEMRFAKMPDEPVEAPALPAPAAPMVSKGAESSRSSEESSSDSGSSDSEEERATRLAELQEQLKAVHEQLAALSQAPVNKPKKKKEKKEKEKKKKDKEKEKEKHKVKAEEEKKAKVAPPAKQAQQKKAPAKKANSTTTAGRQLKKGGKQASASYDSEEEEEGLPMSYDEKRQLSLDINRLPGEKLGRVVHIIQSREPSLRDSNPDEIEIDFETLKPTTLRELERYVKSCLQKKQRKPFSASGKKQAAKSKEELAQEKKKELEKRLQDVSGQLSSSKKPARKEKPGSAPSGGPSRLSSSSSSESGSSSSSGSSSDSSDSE

[3] = target: Bromodomain-containing protein 2 (Homo sapiens, UniProt P25440); assay: Binding affinity to human BRD2 assessed as inhibition of Alexa Fluor 488 binding after 60 mins by fluorescence anisotropic analysis
Sequence of Bromodomain-containing protein 2 (P25440 whole entry): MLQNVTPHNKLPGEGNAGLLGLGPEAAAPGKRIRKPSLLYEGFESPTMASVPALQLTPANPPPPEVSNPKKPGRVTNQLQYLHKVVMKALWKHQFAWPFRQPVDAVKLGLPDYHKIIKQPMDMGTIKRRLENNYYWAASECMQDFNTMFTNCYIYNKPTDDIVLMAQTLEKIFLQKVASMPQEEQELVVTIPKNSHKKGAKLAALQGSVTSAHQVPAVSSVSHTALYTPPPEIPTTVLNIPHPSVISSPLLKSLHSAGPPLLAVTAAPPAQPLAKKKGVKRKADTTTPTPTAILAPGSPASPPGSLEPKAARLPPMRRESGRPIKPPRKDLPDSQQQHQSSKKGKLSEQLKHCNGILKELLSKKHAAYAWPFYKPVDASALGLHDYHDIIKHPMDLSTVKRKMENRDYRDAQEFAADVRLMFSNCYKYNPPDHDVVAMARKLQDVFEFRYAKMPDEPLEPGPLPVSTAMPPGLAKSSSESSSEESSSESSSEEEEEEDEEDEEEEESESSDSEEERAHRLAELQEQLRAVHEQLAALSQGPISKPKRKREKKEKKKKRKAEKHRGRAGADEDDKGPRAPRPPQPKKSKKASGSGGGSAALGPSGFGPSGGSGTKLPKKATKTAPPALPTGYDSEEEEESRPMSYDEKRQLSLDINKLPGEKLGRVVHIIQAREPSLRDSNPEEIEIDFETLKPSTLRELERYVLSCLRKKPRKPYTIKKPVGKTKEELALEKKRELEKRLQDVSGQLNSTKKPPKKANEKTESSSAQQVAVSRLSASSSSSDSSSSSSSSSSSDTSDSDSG

[4] = tested on: HepG2; assay: Inhibition of BET in human HepG2 cells assessed as upregulation of ApoA1 after 18 hrs by luciferase reporter gene assay; assay type: cell-based
[5] = tested on: Mus musculus; assay: Antiinflammatory activity in mouse endotoxaemia model assessed as protection against LPS-induced mortality at 10 mg/kg, iv administered 90 mins post LPS challenge measured up to 4 days; assay type: functional, organism-based; parameters: dose 10 mg/kg
[6] = tested on: Mus musculus; assay: Antiinflammatory activity in mouse endotoxaemia model assessed as protection against LPS-induced mortality at 10 mg/kg, iv administered 1 hr prior to LPS challenge measured up to 4 days; assay type: functional, organism-based; parameters: dose 10 mg/kg
[7] = tested on: Mus musculus; assay: Antiinflammatory activity in mouse endotoxaemia model assessed as inhibition of LPS-induced TNFalpha production at 0.1 to 30 mg/kg, iv administered 1 hr prior to LPS-challenge measured after 90 mins by ELISA relative to vehicle-treated control; assay type: functional, organism-based
[8] = tested on: Mus musculus; assay: Antiinflammatory activity in mouse endotoxaemia model assessed as inhibition of LPS-induced IL6 production at 10 mg/kg, iv administered 1 hr prior to LPS challenge measured after 90 mins by ELISA relative to vehicle-treated control; assay type: functional, organism-based; parameters: dose 10 mg/kg
[9] = Half life in dog; assay type: ADME, organism-based, Canis lupus familiaris; details: in vivo
[10] = Half life in mini pig; assay type: ADME, organism-based, Sus scrofa; details: in vivo
[11] = Volume of distribution in mouse; assay type: ADME, organism-based; details: in vivo
[12] = Volume of distribution in dog; assay type: ADME, organism-based, Canis lupus familiaris; details: in vivo
[13] = Volume of distribution in mini pig; assay type: ADME, organism-based, Sus scrofa; details: in vivo
[14] = Blood clearance in mouse; assay type: ADME, organism-based
[15] = Blood clearance in mini pig; assay type: ADME, organism-based, Sus scrofa
[16] = Blood clearance in dog; assay type: ADME, organism-based, Canis lupus familiaris
[17] = Oral bioavailability in dog; assay type: ADME, organism-based, Canis lupus familiaris; details: in vivo
[18] = Oral bioavailability in mini pig; assay type: ADME, organism-based, Sus scrofa; details: in vivo
[19] = target: 3',5'-cyclic-AMP phosphodiesterase 4B (Homo sapiens, UniProt Q07343); assay: Inhibition of PDE4B
Sequence of 3',5'-cyclic-AMP phosphodiesterase 4B (Q07343 whole entry): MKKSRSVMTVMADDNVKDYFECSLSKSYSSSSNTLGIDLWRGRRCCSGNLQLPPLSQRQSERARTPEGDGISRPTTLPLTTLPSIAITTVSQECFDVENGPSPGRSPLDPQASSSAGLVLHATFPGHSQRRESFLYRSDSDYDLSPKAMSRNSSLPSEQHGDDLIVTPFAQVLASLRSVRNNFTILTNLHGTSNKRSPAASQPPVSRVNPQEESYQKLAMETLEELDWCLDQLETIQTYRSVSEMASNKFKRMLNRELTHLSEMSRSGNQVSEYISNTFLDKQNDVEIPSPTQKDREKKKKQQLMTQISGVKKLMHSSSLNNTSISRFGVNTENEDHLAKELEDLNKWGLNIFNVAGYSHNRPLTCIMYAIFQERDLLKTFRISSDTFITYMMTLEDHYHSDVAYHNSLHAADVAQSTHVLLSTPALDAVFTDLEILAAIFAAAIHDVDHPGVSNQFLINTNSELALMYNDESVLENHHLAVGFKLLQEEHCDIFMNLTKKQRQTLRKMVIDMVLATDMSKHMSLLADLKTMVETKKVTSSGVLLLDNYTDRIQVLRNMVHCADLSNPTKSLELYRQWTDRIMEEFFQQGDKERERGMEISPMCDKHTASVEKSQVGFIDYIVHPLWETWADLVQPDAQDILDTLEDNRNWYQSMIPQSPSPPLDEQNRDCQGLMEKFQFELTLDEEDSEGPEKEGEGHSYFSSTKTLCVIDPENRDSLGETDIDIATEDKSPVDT

[20] = tested on: Salmonella typhimurium; assay: Mutagenicity against Salmonella typhimurium TA100 by AMES test in absence of S9 fraction; assay type: toxicity, organism-based; details: salmonella enterica subsp. enterica serovar typhimurium
[21] = tested on: Salmonella typhimurium; assay: Mutagenicity against Salmonella typhimurium TA98 by AMES test in absence of S9 fraction; assay type: toxicity, organism-based; details: salmonella enterica subsp. enterica serovar typhimurium
[22] = tested on: Salmonella typhimurium; assay: Mutagenicity against Salmonella typhimurium TA1535 by AMES test in absence of S9 fraction; assay type: toxicity, organism-based; details: salmonella enterica subsp. enterica serovar typhimurium
[23] = tested on: Escherichia coli; assay: Mutagenicity against Escherichia coli WP2uvrA by AMES test in absence of S9 fraction; assay type: toxicity, organism-based
[24] = tested on: Salmonella typhimurium; assay: Mutagenicity against Salmonella typhimurium TA1537 by AMES test in absence of S9 fraction; assay type: toxicity, organism-based; details: salmonella enterica subsp. enterica serovar typhimurium
[25] = tested on: Salmonella typhimurium; assay: Mutagenicity against Salmonella typhimurium TA100 by AMES test in presence of S9 fraction; assay type: toxicity, organism-based; details: salmonella enterica subsp. enterica serovar typhimurium
[26] = tested on: Salmonella typhimurium; assay: Mutagenicity against Salmonella typhimurium TA98 by AMES test in presence of S9 fraction; assay type: toxicity, organism-based; details: salmonella enterica subsp. enterica serovar typhimurium
[27] = tested on: Salmonella typhimurium; assay: Mutagenicity against Salmonella typhimurium TA1535 by AMES test in presence of S9 fraction; assay type: toxicity, organism-based; details: salmonella enterica subsp. enterica serovar typhimurium
[28] = tested on: Escherichia coli; assay: Mutagenicity against Escherichia coli WP2uvrA by AMES test in presence of S9 fraction; assay type: toxicity, organism-based
[29] = tested on: Salmonella typhimurium; assay: Mutagenicity against Salmonella typhimurium TA1537 by AMES test in presence of S9 fraction; assay type: toxicity, organism-based; details: salmonella enterica subsp. enterica serovar typhimurium
[30] = Fraction unbound in dog blood after 4 hrs by rapid equilibrium dialysis; assay type: ADME, tissue-based, Canis lupus familiaris
[31] = Fraction unbound in human blood after 4 hrs by rapid equilibrium dialysis; assay type: ADME, tissue-based
[32] = Fraction unbound in mouse blood after 4 hrs by rapid equilibrium dialysis; assay type: ADME, tissue-based
[33] = Fraction unbound in rat blood after 4 hrs by rapid equilibrium dialysis; assay type: ADME, tissue-based
[34] = tested on: Blood; assay: Antiinflammatory activity in human whole blood assessed as inhibition of LPS-induced IFNgamma production; assay type: functional, tissue-based
[35] = tested on: Blood; assay: Antiinflammatory activity in human whole blood assessed as inhibition of LPS-induced IL12p70 production; assay type: functional, tissue-based
[36] = tested on: Blood; assay: Antiinflammatory activity in human whole blood assessed as inhibition of LPS-induced IL10 production; assay type: functional, tissue-based
[37] = tested on: Blood; assay: Antiinflammatory activity in human whole blood assessed as inhibition of LPS-induced IL8 production; assay type: functional, tissue-based
[38] = tested on: Blood; assay: Antiinflammatory activity in human whole blood assessed as inhibition of LPS-induced TNFalpha production; assay type: functional, tissue-based
[39] = tested on: PBMC; assay: Cytotoxicity against human PBMC assessed as decrease in ATP level; assay type: cell-based
[40] = tested on: PBMC; assay: cells; details: Homo sapiens, read-out: pIC50 (converted)
Description: Antiinflammatory activity in human PBMC assessed as inhibition of LPS-induced IL6 production

[41] = Volume of distribution in rat; assay type: ADME, organism-based; details: in vivo
[42] = target: Cytochrome P450 2C19 (Homo sapiens, UniProt P33261); assay: Inhibition of CYP2C19; assay type: ADME
Sequence of Cytochrome P450 2C19 (P33261 whole entry): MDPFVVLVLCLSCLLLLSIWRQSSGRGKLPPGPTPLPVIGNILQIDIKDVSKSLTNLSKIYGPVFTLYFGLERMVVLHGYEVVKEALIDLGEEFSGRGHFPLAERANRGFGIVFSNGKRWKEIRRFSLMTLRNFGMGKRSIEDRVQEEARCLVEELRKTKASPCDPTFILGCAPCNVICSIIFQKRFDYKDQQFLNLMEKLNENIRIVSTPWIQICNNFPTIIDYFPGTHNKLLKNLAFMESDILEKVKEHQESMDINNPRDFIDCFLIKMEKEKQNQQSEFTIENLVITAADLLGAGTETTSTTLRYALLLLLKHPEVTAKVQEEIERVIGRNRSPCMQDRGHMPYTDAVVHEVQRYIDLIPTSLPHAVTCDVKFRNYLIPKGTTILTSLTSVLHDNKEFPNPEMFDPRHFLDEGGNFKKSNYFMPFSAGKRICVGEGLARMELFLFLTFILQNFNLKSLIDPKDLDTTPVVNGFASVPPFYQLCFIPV

SMILES: Cc1noc(C)c1-c1ccc2c(Nc3ccccc3F)c(C(=O)O)cnc2c1
pEC170 [4]: 5.7
IC50 [1]: 1260 nM
IC50 [2]: 631 nM
IC50 [3]: 1580 nM

SMILES: COc1cc2c(cc1-c1c(C)noc1C)ncc1[nH]c(=O)n([C@H](C)c3ccccc3)c12
Activity [34]: inactive
Activity [35]: inactive
Activity [36]: Active
Activity [37]: inactive
Activity [38]: Active
Activity [39]: Non-toxic
pEC170 [4]: 8
IC50 [40]: 100 nM

SMILES: Cc1noc(C)c1-c1ccc2c(Nc3ccccc3F)c(C(N)=O)cnc2c1
pEC170 [4]: 6.3
IC50 [1]: 7940 nM
IC50 [2]: 3160 nM
IC50 [3]: 12600 nM

SMILES: COc1cc2c(cc1-c1c(C)noc1C)ncc1[nH]c(=O)n([C@@H](C)c3ccccc3)c12
pEC170 [4]: 6.3

Now from value to molecule, other results behind:

IC50 [1]: 6310 nM
IC50 [2]: 1580 nM
IC50 [3]: 3160 nM
SMILES: COc1cc2c(Nc3ccccc3F)ccnc2cc1-c1c(C)noc1C

IC50 [1]: 1260 nM
IC50 [2]: 631 nM
IC50 [3]: 2510 nM
SMILES: COc1cc2c(cc1-c1c(C)noc1C)ncc1[nH]c(=O)n(-c3ccccc3F)c12
pEC170 [4]: 6.1

half-life [9]: 1.2 h
half-life [10]: 1.2 h
Vd [11]: 1.2 L/kg
Vd [12]: 3 L/kg
Vd [13]: 1.6 L/kg
clearance [14]: 8 mL/min/kg
clearance [15]: 15 mL/min/kg
clearance [16]: 38 mL/min/kg
bioavailability [17]: 16%
bioavailability [18]: 65%
IC50 [19]: 3980 nM
fraction unbound at 4 h [30]: 0.09
fraction unbound at 4 h [31]: 0.05
fraction unbound at 4 h [32]: 0.03
fraction unbound at 4 h [33]: 0.06
SMILES: COc1cc2c(cc1-c1c(C)noc1C)ncc1[nH]c(=O)n([C@H](C)c3ccccn3)c12
Activity [5]: Active
Activity [6]: Active
inhibition [7]: inactive
inhibition [8]: Active
Activity [20]: Non-toxic
Activity [21]: Non-toxic
Activity [22]: Non-toxic
Activity [23]: Non-toxic
Activity [24]: Non-toxic
Activity [25]: Non-toxic
Activity [26]: Non-toxic
Activity [27]: Non-toxic
Activity [28]: Non-toxic
Activity [29]: Non-toxic
Activity [34]: inactive
Activity [35]: inactive
Activity [36]: Active
Activity [37]: inactive
Activity [38]: Active
Activity [39]: Non-toxic
pEC170 [4]: 7
IC50 [40]: 200 nM

half-life [9]: 1.3 h
Vd [12]: 1.3 L/kg
Vd [41]: 4.1 L/kg
clearance [16]: 12 mL/min/kg
bioavailability [17]: 52%
IC50 [19]: 50.1 nM
IC50 [42]: 5500 nM
fraction unbound at 4 h [30]: 0.01
fraction unbound at 4 h [31]: 0.04
fraction unbound at 4 h [32]: 0.015
fraction unbound at 4 h [33]: 0.025
IC50 [1]: 794 nM
IC50 [2]: 501 nM
IC50 [3]: 1000 nM
SMILES: COc1cc2c(Nc3cccc4cccnc34)c(C(N)=O)cnc2cc1-c1c(C)noc1C
Activity [23]: Toxic
Activity [24]: Toxic
Activity [28]: Toxic
Activity [29]: Toxic
Activity [34]: inactive
Activity [35]: inactive
Activity [36]: Active
Activity [37]: inactive
Activity [38]: Active
Activity [39]: Non-toxic
pEC170 [4]: 6.7
IC50 [40]: 100 nM
